Our source for the IC50 and Ki values is ChEMBL document CHEMBL1909046, “DrugMatrix in vitro pharmacology data”.

Sequence of 5-hydroxytryptamine receptor 6 (P50406 whole entry): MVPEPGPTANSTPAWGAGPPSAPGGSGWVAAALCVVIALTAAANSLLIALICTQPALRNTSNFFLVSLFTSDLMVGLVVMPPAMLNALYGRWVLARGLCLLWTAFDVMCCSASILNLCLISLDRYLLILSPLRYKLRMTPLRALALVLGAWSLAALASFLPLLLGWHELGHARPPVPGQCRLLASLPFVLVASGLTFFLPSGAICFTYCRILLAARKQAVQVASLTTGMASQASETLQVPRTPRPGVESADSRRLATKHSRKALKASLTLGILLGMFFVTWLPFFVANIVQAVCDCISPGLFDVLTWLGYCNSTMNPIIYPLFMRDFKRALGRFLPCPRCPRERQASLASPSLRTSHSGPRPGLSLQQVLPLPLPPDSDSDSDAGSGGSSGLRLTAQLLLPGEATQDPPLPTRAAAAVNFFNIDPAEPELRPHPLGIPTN

The target of the first assay is T1, Alpha-1D adrenergic receptor (Homo sapiens, UniProt P25100). Further: in other assays of this panel Not Active means under 50% inhibition at 10 µM.
T1 sequence (P25100 whole entry): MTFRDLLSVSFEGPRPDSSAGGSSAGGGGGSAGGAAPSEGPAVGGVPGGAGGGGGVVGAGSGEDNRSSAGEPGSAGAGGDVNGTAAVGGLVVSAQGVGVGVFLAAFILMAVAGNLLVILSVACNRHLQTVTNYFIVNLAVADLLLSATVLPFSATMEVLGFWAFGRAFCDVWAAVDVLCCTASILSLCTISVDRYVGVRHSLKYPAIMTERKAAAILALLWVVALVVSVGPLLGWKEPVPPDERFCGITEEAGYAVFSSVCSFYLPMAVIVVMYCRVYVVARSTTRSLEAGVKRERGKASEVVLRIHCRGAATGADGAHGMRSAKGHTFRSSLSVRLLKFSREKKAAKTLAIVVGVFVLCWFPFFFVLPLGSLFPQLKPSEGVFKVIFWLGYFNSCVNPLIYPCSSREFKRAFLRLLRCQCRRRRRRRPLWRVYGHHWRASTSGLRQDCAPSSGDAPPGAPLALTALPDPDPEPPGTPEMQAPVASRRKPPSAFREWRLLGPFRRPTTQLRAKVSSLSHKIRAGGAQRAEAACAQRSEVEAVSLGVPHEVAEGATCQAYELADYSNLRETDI
Format: cell membranes, HEK293, Membrane. To be noted: hek293.
As to `COc1cc2c(c3oc(=O)c4c(c13)CCC4=O)[C@@H]1C=CO[C@@H]1O2` [AFLATOXIN], the IC50 entry is recorded as “Not Active” and the Ki entry is “Not Active”.
As to `N=C(N)NC(=O)c1nc(Cl)c(N)nc1N` [AMILORIDE], the IC50 result was “Not Active”.
On the same count and under the same terms, the result for `Cc1cc(=O)n(-c2ccccc2)n1C` [ANTIPYRINE] reads “Not Active”.
Same read-out and setting: the result for `CN1C(=O)COc2c(C(=O)NC3CN4CCC3CC4)cc(Cl)cc21` (configuration not stated) [AZASETRON] reads “Not Active”.
Take `C[C@H]1C[C@H]2[C@@H]3CCC4=CC(=O)C=C[C@]4(C)[C@@]3(Cl)[C@@H](O)C[C@]2(C)[C@@]1(O)C(=O)CO` [BECLOMETHASONE]: the IC50 result is recorded as “Not Active”.

For a further assay, the target named is Beta-2 adrenergic receptor (Homo sapiens, UniProt P07550). As to the kind of experiment: DRUGMATRIX: Adrenergic beta2 radioligand binding (ligand: [3H] CGP-12177). Format: cell membranes, Membrane. To be noted: cho; Not Active = under 50% inhibition at 10 µM.
Sequence of Beta-2 adrenergic receptor (P07550 whole entry): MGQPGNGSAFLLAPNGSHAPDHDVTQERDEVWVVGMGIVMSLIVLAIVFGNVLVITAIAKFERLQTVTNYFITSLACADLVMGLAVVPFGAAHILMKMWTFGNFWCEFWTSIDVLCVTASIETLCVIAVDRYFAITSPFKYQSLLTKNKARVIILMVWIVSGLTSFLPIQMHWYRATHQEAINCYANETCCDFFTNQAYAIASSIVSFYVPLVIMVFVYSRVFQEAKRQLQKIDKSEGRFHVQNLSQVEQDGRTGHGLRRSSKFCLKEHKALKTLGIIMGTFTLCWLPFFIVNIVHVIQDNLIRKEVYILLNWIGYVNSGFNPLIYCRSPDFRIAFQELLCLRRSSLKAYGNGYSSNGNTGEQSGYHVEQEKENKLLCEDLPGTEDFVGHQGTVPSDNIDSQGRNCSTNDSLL
For `COc1cc2c(c3oc(=O)c4c(c13)CCC4=O)[C@@H]1C=CO[C@@H]1O2` [AFLATOXIN], the IC50 entry was “Not Active” and the Ki entry was “Not Active”.
For the compound `N=C(N)NC(=O)c1nc(Cl)c(N)nc1N` [AMILORIDE], the IC50 result is recorded as “Not Active”.
Same read-out and setting: the result for `Cc1cc(=O)n(-c2ccccc2)n1C` [ANTIPYRINE] reads “Not Active”; that for `CN1C(=O)COc2c(C(=O)NC3CN4CCC3CC4)cc(Cl)cc21` (configuration not stated) [AZASETRON], “Not Active”; that for `C[C@H]1C[C@H]2[C@@H]3CCC4=CC(=O)C=C[C@]4(C)[C@@]3(Cl)[C@@H](O)C[C@]2(C)[C@@]1(O)C(=O)CO` [BECLOMETHASONE], “Not Active”.

The target of another assay is Beta-3 adrenergic receptor (Homo sapiens, UniProt P13945). The experiment in a line: DRUGMATRIX: Adrenergic beta3 radioligand binding (ligand: [125I] Cyanopindolol). Format: cell membranes, Membrane. To be noted: hek293; Not Active = under 50% inhibition at 10 µM.
Sequence of Beta-3 adrenergic receptor (P13945 whole entry): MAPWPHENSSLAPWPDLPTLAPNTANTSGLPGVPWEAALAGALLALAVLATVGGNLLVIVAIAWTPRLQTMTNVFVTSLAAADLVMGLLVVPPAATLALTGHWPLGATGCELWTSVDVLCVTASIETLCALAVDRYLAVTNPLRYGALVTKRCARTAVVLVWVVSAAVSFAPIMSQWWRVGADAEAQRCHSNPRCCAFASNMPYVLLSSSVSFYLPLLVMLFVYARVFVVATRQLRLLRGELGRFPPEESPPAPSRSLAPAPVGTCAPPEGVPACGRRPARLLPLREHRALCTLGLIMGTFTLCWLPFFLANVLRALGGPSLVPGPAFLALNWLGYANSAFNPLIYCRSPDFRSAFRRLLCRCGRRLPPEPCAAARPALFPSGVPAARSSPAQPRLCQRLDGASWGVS
As for `COc1cc2c(c3oc(=O)c4c(c13)CCC4=O)[C@@H]1C=CO[C@@H]1O2` [AFLATOXIN], the IC50 entry is given as “Not Active” and the Ki entry was “Not Active”.
Turning to `N=C(N)NC(=O)c1nc(Cl)c(N)nc1N` [AMILORIDE], the IC50 result is recorded as “Not Active”.
The same measure, in the same setting: to `Cc1cc(=O)n(-c2ccccc2)n1C` [ANTIPYRINE] belongs “Not Active”; to `CN1C(=O)COc2c(C(=O)NC3CN4CCC3CC4)cc(Cl)cc21` (configuration not stated) [AZASETRON], “Not Active”.
As to `C[C@H]1C[C@H]2[C@@H]3CCC4=CC(=O)C=C[C@]4(C)[C@@]3(Cl)[C@@H](O)C[C@]2(C)[C@@]1(O)C(=O)CO` [BECLOMETHASONE], the IC50 entry is on record as “Not Active”.

A further assay addresses 5-hydroxytryptamine receptor 6 (Homo sapiens, UniProt P50406). Format: cell membranes, HeLa, Membrane. To be noted: hela.
Regarding `COc1cc2c(c3oc(=O)c4c(c13)CCC4=O)[C@@H]1C=CO[C@@H]1O2` [AFLATOXIN], the IC50 result was “Not Active” and the Ki result is recorded as “Not Active”.
For `N=C(N)NC(=O)c1nc(Cl)c(N)nc1N` [AMILORIDE], the IC50 entry is “Not Active”.
On the same count and under the same terms, to `Cc1cc(=O)n(-c2ccccc2)n1C` [ANTIPYRINE] belongs “Not Active”.
Still for that read-out and setting: to `CN1C(=O)COc2c(C(=O)NC3CN4CCC3CC4)cc(Cl)cc21` (configuration not stated) [AZASETRON] belongs “Not Active”.
The same measure, in the same setting: to `C[C@H]1C[C@H]2[C@@H]3CCC4=CC(=O)C=C[C@]4(C)[C@@]3(Cl)[C@@H](O)C[C@]2(C)[C@@]1(O)C(=O)CO` [BECLOMETHASONE] belongs “Not Active”.

A further assay deals with C-C chemokine receptor type 5 (Homo sapiens, UniProt P51681). Format: cell membranes, HEK293, Membrane. To be noted: hek293.
Sequence of C-C chemokine receptor type 5 (P51681 whole entry): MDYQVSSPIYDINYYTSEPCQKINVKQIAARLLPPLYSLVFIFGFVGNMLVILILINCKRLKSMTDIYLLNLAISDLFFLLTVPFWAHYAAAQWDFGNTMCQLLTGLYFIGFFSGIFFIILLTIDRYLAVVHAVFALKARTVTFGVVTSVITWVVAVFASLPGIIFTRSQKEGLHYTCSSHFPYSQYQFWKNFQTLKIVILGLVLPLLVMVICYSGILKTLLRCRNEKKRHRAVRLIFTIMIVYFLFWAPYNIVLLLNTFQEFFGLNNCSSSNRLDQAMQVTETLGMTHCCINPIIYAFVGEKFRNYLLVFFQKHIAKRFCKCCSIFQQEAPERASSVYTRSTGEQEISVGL
Consider `COc1cc2c(c3oc(=O)c4c(c13)CCC4=O)[C@@H]1C=CO[C@@H]1O2` [AFLATOXIN], for which the IC50 entry is given as “Not Active” and the Ki entry is on record as “Not Active”.
Regarding `N=C(N)NC(=O)c1nc(Cl)c(N)nc1N` [AMILORIDE], the IC50 entry was “Not Active”.
Still for that read-out and setting: to `Cc1cc(=O)n(-c2ccccc2)n1C` [ANTIPYRINE] belongs “Not Active”.
As to `CN1C(=O)COc2c(C(=O)NC3CN4CCC3CC4)cc(Cl)cc21` (configuration not stated) [AZASETRON], the IC50 entry is “Not Active”.
Same read-out and setting: the result for `C[C@H]1C[C@H]2[C@@H]3CCC4=CC(=O)C=C[C@]4(C)[C@@]3(Cl)[C@@H](O)C[C@]2(C)[C@@]1(O)C(=O)CO` [BECLOMETHASONE] reads “Not Active”.

The target of a further assay is T2, Muscarinic acetylcholine receptor M5 (Homo sapiens, UniProt P08912). Further: in other assays of this panel Not Active means under 50% inhibition at 10 µM.
T2 sequence (P08912 whole entry): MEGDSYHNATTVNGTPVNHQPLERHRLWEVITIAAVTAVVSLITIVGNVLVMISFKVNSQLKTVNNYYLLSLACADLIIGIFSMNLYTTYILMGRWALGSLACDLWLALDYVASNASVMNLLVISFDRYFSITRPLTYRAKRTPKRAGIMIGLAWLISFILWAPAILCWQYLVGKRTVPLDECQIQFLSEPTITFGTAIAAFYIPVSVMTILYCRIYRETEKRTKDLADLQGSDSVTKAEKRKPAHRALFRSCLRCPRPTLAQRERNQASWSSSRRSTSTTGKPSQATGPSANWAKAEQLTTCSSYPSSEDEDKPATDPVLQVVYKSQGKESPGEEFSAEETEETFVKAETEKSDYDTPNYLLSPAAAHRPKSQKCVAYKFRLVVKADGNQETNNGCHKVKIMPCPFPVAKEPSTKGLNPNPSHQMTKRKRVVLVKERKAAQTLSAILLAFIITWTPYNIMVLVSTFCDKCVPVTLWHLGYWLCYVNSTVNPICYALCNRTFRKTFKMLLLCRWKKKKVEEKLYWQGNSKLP
Format: cell membranes, CHO-K1, Membrane. To be noted: cho-k1.
With `COc1cc2c(c3oc(=O)c4c(c13)CCC4=O)[C@@H]1C=CO[C@@H]1O2` [AFLATOXIN], the IC50 result is recorded as “Not Active” and the Ki entry is reported as “Not Active”.
With `N=C(N)NC(=O)c1nc(Cl)c(N)nc1N` [AMILORIDE], the IC50 result is given as “Not Active”.
With `Cc1cc(=O)n(-c2ccccc2)n1C` [ANTIPYRINE], the IC50 result was “Not Active”.
Still for that read-out and setting: to `CN1C(=O)COc2c(C(=O)NC3CN4CCC3CC4)cc(Cl)cc21` (configuration not stated) [AZASETRON] belongs “Not Active”.
Regarding `C[C@H]1C[C@H]2[C@@H]3CCC4=CC(=O)C=C[C@]4(C)[C@@]3(Cl)[C@@H](O)C[C@]2(C)[C@@]1(O)C(=O)CO` [BECLOMETHASONE], the IC50 entry is on record as “Not Active”.

Another assay addresses T3, Nitric oxide synthase, inducible (Mus musculus, UniProt P29477).
T3 sequence (P29477 whole entry): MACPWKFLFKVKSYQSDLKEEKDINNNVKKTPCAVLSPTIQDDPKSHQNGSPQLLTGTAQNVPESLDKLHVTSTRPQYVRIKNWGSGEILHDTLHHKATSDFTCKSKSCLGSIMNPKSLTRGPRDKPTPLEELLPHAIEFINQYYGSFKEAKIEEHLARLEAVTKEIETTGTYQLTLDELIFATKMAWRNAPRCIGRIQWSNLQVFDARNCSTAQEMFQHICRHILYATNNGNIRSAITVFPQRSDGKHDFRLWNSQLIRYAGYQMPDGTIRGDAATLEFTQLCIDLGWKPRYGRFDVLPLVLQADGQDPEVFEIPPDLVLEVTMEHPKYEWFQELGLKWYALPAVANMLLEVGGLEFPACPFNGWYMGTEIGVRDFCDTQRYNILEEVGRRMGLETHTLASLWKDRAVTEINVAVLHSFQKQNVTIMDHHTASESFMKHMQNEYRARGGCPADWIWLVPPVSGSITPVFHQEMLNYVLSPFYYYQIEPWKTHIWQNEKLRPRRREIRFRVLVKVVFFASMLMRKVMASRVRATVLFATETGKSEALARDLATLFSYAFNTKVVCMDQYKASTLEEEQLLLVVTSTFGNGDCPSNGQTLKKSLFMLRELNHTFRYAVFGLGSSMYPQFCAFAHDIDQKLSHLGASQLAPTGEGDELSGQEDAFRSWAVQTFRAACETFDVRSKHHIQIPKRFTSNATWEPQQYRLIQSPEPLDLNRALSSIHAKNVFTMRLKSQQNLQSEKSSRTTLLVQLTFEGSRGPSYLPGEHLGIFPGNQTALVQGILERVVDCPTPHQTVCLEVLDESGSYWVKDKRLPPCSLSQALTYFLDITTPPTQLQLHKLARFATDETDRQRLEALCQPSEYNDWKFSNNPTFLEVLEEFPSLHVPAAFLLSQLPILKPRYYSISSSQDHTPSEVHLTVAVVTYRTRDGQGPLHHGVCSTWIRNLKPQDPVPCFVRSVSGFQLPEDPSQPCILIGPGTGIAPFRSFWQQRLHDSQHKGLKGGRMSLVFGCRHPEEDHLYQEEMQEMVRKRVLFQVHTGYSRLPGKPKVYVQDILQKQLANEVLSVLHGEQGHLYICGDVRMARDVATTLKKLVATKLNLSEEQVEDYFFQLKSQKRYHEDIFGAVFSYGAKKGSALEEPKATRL
On the set-up: species or system Escherichia coli.
Conditions: not given
Consider `COc1cc2c(c3oc(=O)c4c(c13)CCC4=O)[C@@H]1C=CO[C@@H]1O2` [AFLATOXIN], for which the IC50 entry is “Not Active” and the Ki result was “Not Active”.
`N=C(N)NC(=O)c1nc(Cl)c(N)nc1N` [AMILORIDE]: the IC50 entry is recorded as “Not Active”.
The same measure, in the same setting: the result for `Cc1cc(=O)n(-c2ccccc2)n1C` [ANTIPYRINE] reads “Not Active”; that for `CN1C(=O)COc2c(C(=O)NC3CN4CCC3CC4)cc(Cl)cc21` (configuration not stated) [AZASETRON], “Not Active”.
For `C[C@H]1C[C@H]2[C@@H]3CCC4=CC(=O)C=C[C@]4(C)[C@@]3(Cl)[C@@H](O)C[C@]2(C)[C@@]1(O)C(=O)CO` [BECLOMETHASONE], the IC50 entry is reported as “Not Active”.
